Columns and labels:
[1] = molecular target: T1, Aggregated human Tau in human neuroblastoma cell line overexpressing full-length human Tau P301L (Homo sapiens, UniProt P10636, P618L); experiment: Reduction of intracellular Tau aggregation (AlphaLISA, aggregated Tau normalized to total Tau); type: cell-based; conditions: compound at 5 μM, 24 h, relative to DMSO-treated cells
T1 construct: overexpressing the full-length form of human Tau carrying the P301L mutation; expressed in transfected cells; host or cells: human neuroblastoma cell line (G418 selection)
T1 sequence (P10636 1-441 isoform P10636-8 P301L): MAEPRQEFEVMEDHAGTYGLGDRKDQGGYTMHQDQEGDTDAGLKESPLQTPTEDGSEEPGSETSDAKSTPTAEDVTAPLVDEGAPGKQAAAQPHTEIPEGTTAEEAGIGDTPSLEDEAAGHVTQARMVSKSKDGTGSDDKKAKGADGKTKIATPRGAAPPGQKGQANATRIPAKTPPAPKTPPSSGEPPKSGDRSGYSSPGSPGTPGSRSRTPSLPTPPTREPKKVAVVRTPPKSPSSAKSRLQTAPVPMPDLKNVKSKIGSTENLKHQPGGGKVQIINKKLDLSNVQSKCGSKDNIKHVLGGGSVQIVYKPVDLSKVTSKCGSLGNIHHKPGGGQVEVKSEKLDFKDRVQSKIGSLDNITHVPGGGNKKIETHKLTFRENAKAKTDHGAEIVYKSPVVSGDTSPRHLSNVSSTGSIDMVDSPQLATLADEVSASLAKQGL
Description: Reduction of Intracellular Tau Aggregation
A human neuroblastoma cell line overexpressing the full-length form of human Tau carrying the P301L mutation was cultured in complete medium [DMEM-F12 4.5 g/L Glutamax (Invitrogen), 15% FBS (Biochrom), 1% Peni/Strep (Invitrogen) supplemented with 2.5 μg/ml of G418 (Sigma-Aldrich) selection antibiotic]. The day before the experiment 5×10^5 cells/well were plated in a 6 well plate in 3 mL of complete medium. The next day, cells were incubated with DMSO or a compound of the present invention at 5 μM for additional 24 h at 37° C. After incubation, cells were trypsinized, resupsended in 100 μl of homogenization buffer [25 mM Tris-HCl pH 7.4, 150 mM NaCl, 1 mM EDTA, 1 mM EGTA containing phosphatase inhibitors (30 mM NaF, 0.2 mM Na3VO4, 1 nM okadaic acid, 1 mM PMSF, 5 mM Na4P2O7) and protease inhibitor cocktail (Complete™, Roche)], and then physically lysed with three rapid cycles of freezing and thawing. Samples were then directly tested in the AlphaLISA assay.
Phosphorylated, aggregated, and total Tau were quantified by AlphaLisa using the following antibody pairs: • HT7-Acceptor beads+biotin (BT)-Tau13-Donor beads: Total Tau • HT7-Acceptor beads+biotin (BT)-HT7-Donor beads: Aggregated human Tau
The Tau13 (Abcam) was biotinylated using EZ-Link® NHS-PEO Solid Phase biotinylation kit (Thermo Scientific), while the HT7-biotin was from a commercial source (Thermo Scientific).
For each antibody pairs the concentration of acceptor beads and biotinylated antibodies was optimized. All samples were first tested in a dilution series in PBS in order to identify the linear range and optimal dilution for each sample and assay. For the final protocol, the following reagents were added in a 384-well white OptiPlate (PerkinElmer): • 5 μL of test diluted sample • 20 μL of the mixture biotin-mAb acceptor beads at the following final concentrations: • HT7-BT at 1.25 nM in combination with HT7-Acc beads at 10 μg/ml • Tau13-BT at 5 nM in combination with HT7-Acc beads at 2.5 μg/ml
After incubation of this mixture at room temperature for 1 h, 25 μL of Streptavidin Donor beads (Perkin Elmer) at 25 μg/mL were added in the dark. Plates were analyzed after 30 min incubation using the EnSpire Alpha instrument and EnSpire Workstation version 3.00. Data for aggregated Tau were normalized to total Tau and then expressed as percentage of the DMSO-treated cells.

[2] = molecular target: T2, Tau K18 fragment aggregates (amino acids 244 to 372 of human Tau441) (Homo sapiens, UniProt P10636); experiment: Tau K18 disaggregation assay by ThT; type: biochemical; conditions: ThT fluorescence; 2 μM K18 aggregates, 30 minutes at RT
T2 construct: encompassing amino acids 244 to 372 of the longest isoform (2N4R) of human Tau441; host or cells: bacteria
T2 sequence (P10636 561-689): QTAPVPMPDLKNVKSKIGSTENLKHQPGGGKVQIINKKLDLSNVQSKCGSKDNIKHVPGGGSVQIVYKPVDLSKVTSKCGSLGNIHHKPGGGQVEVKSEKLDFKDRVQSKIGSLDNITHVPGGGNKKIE
Description: Tau K18 Disaggregation Assay by ThT
The Tau K18 fragment, encompassing amino acids 244 to 372 of the longest isoform (2N4R) of human Tau441, was expressed in bacteria and purified or bought from SignalChem. For the K18 disaggregation assay by ThT, 35 μM of recombinant K18 in PBS were aggregated for 24 hours at 37° C. in presence of 50 μM of heparin (Sigma-Aldrich) and 10 mM of DTT (Sigma-Aldrich) under shaking at 750 RPM. Compounds were dissolved in anhydrous dimethyl sulfoxide (DMSO, Sigma-Aldrich) to reach a concentration of 10 mM. K18 aggregates and serial dilutions of compounds were mixed together in PBS (volume 50 μL) to a final concentration of 2 μM of K18 aggregates and from 160 to 0.04 μM of compounds. The mixture was incubated for 30 minutes at room temperature (RT), then 40 μL of this mixture were transferred into a black 384-well plate assay (Perkin-Elmer) and mixed with 10 μL of 100 μM ThT in 250 mM glycine (both from Sigma-Aldrich) in PBS. Fluorescence (relative fluorescence units; RFU) was measured in monoplicate or duplicate on a Tecan reader (excitation: 440 nm; emission: 485 nm). Percentage of K18 disaggregation was then calculated and half maximal effective concentration (E050) was determined using GraphPad Prism version 5 (GraphPad Software) assuming a one-binding site fitting model.

[3] = molecular target: T3, monomeric flTau (human Tau 2N4R; 441 amino acids) (Homo sapiens, UniProt P10636); experiment: Full-length Tau inhibition of aggregation assay by ThT (seeded with AD brain PHF); type: biochemical; conditions: 4 μM monomeric flTau + AD brain PHF 1:200, 72 h at 37° C.
T3 construct: purchased Biotechne (USA); host or cells: E coli
T3 sequence (P10636 1-441 isoform P10636-8): as the sequence (P10636 1-441 isoform P10636-8 P301L) above, with L301P counted along it
Description: Full-Length Tau (fIT) Inhibiton of Aggregation Assay by ThT
The isoform of human Tau (2N4R; 441 amino acids) was purchased from Biotechne (USA). The protein was expressed in bacteria E coli, purified and concentrated in PBS to a final concentration of 50 μM.
To induce Tau aggregation, 4 μM of monomeric flTau was incubated for 72 hours at 37° C. under agitation cycles consisting of both orbital shaking and mixing function using the Hula Mixer (Life Technologies) with Tau paired-helical filaments (PHF) enriched from the post-mortem brain of one Alzheimer's disease (AD) patient obtained from an external source (Tissue Solutions) diluted 1:200. The enrichment procedure was modified from Jicha et al, 1997 (Journal of Neuroscience Research 48:128-132 (1997)) and Rostagno and Ghiso, 2009 (Current protocols in cell biology (2009), Chapter 3, Unit 3.33 3.33.1-33). […]
To test the capability of compounds of this invention to inhibit Tau aggregation, serial dilution of compounds in DMSO were added to the monomeric flTau/PHF mix prior incubation. […] Fluorescence was measured in monoplicate on a Tecan reader Spark using filter (excitation at 448 nm/BW 7 nm, emission at 485 nm/BW 20 nm). A dose response type of curve was obtained out to two independent experiments each with technical duplicates and the IC50 was calculated using GraphPad Prism 7.03.

Structure (SMILES) | % Reduction of intracellular Tau aggregation [1] | EC50 [2] [µM] | IC50 [3] [µM]
c1ccc2c3c([nH]c2c1)CN(c1ccc(N2CCOCC2)nc1)CC3 [Example 44] | +++ (+++ % > 50) | < 10 | 0.39
Cn1c2c(c3ccccc31)CCN(c1ccc(N3CCOCC3)nc1)C2 [Example 46] | ++ (++ % 50 < x < 25) | < 10 | 1.2
